Assay results published in ChEMBL document CHEMBL5236620, “Discovery of 2-Amino-7-sulfonyl-7H-pyrrolo[2,3-d]pyrimidine Derivatives as Potent Reversible FGFR Inhibitors with Gatekeeper Mutation Tolerance: Design, Synthesis, and Biological Evaluation” (J Med Chem, 2022).
Calls of active or inactive are those of the source. The calls are words filed in the database; no cut-off is given here.

Legend:
[1] = target: Fibroblast growth factor receptor 4 (Homo sapiens, UniProt P22455)
Description: Inhibition of FGFR4 (unknown origin) using TK as substrate incubated for 1 hr in presence of biotin/ATP by HTRF assay

Huh-7 = assay: cells; conditions: Homo sapiens, Huh-7, 72 h
Description: Cytotoxicity against human Huh-7 cells assessed as inhibition of cell growth incubated for 72 hrs by CellTiter-Glo assay

BaF3 [2] = assay: Cytotoxicity against mouse BaF3 cells assessed as inhibition of cell growth incubated for 72 hrs by CCK-8 assay; assay type: functional, cell-based; conditions: BaF3, 72 h
BaF3 [3] = assay: Cytotoxicity against mouse BaF3 cells expressing wild type TEL-fused FGFR4 assessed as inhibition of cell growth incubated for 72 hrs by CCK-8 assay; assay type: functional, cell-based; conditions: BaF3, 72 h
in vitro [4] = conditions: mouse
Description: Metabolic stability in mouse assessed as intrinsic clearance

in vitro [5] = conditions: mouse, liver microsomes
Description: Metabolic stability in mouse liver microsomes assessed as intrinsic clearance pretreated for 5 mins followed by NADPH addition and measured for 45 mins by LC/MS analysis

in vitro [6] = conditions: human
Description: Metabolic stability in human assessed as intrinsic clearance

in vitro [7] = conditions: human, liver microsomes
Description: Metabolic stability in human liver microsomes assessed as half life pretreated for 5 mins followed by NADPH addition and measured for 45 mins by LC/MS analysis

in vitro [8] = conditions: mouse, liver microsomes; remark: listed apart in the source
Description: Metabolic stability in mouse liver microsomes assessed as half life pretreated for 5 mins followed by NADPH addition and measured for 45 mins by LC/MS analysis

in vitro [9] = conditions: human, liver microsomes; remark: listed apart in the source
Description: Metabolic stability in human liver microsomes assessed as intrinsic clearance pretreated for 5 mins followed by NADPH addition and measured for 45 mins by LC/MS analysis

BaF3 [10] = assay: Cytotoxicity against mouse BaF3 cells expressing TEL-fused FGFR4 V550L mutant assessed as inhibition of cell growth incubated for 72 hrs by CCK-8 assay; assay type: functional, cell-based; conditions: BaF3, 72 h
[11] = target: Janus Kinase (JAK) (Homo sapiens) (UniProt P52333+P23458+O60674+P29597); conditions: dose 500.0 nM
Description: Inhibition of JAK (unknown origin) at 500 nM

[12] = target: Fibroblast growth factor receptor 4 (Mus musculus) (UniProt Q03142); conditions: BaF3, dose 50-400 nM, time 4.0 hrs
Sequence of Fibroblast growth factor receptor 4 (Mus musculus) (Q03142 17-799 limits assumed): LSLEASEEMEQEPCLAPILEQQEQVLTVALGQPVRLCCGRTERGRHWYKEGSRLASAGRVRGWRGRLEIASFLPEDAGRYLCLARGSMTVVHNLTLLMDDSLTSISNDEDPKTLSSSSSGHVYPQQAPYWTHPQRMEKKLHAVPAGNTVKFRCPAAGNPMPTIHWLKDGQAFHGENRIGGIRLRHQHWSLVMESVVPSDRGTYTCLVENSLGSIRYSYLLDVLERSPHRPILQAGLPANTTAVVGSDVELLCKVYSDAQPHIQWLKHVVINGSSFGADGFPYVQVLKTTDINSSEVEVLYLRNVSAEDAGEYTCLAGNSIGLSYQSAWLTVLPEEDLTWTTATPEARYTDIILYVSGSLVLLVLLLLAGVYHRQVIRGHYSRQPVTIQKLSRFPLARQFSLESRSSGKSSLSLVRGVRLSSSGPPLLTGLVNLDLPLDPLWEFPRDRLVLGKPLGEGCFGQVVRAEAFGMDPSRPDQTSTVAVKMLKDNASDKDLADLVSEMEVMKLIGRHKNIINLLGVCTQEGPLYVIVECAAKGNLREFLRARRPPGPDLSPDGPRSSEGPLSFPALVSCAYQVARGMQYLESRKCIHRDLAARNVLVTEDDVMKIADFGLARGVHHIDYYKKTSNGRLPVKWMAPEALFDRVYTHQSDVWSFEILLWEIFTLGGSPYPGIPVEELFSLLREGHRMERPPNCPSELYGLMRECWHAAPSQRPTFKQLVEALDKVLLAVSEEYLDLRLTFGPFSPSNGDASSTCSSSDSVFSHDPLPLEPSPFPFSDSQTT

[13] = target: Fibroblast growth factor receptor 2 (Homo sapiens, UniProt P21802)
Sequence of Fibroblast growth factor receptor 2 (P21802 whole entry): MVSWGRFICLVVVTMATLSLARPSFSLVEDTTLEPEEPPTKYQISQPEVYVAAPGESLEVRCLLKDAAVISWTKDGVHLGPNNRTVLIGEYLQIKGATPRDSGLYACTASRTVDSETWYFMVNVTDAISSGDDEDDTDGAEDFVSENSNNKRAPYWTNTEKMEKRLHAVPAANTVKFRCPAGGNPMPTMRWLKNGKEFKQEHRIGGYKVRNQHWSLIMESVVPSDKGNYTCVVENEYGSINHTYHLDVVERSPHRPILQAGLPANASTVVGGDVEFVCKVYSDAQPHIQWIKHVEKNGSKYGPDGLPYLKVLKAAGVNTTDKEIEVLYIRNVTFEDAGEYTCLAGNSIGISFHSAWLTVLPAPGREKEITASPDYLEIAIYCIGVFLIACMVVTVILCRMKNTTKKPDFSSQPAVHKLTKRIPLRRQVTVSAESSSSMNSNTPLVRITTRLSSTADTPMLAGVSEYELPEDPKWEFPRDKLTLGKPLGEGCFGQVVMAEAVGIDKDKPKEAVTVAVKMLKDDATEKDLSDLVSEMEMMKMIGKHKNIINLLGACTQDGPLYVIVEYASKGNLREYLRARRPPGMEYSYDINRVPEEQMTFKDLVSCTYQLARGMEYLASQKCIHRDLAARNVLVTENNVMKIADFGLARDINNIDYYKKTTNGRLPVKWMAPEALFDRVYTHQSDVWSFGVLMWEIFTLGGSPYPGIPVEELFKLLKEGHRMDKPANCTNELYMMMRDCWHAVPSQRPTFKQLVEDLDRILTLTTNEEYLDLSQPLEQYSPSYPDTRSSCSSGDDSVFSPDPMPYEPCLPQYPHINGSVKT
Description: Inhibition of FGFR2 (unknown origin) using TK as substrate incubated for 1 hr in presence of biotin/ATP by HTRF assay

[14] = target: Fibroblast growth factor receptor 4 (Mus musculus) (UniProt Q03142); conditions: BaF3, dose 50-400 nM, time 4.0 hrs; remark: listed apart in the source
[15] = target: Fibroblast growth factor receptor 4 (Mus musculus) (UniProt Q03142); conditions: BaF3, dose 50-400 nM, time 4.0 hrs; remark: listed apart in the source
[16] = target: Fibroblast growth factor receptor 3 (Homo sapiens, UniProt P22607)
Sequence of Fibroblast growth factor receptor 3 (P22607 whole entry): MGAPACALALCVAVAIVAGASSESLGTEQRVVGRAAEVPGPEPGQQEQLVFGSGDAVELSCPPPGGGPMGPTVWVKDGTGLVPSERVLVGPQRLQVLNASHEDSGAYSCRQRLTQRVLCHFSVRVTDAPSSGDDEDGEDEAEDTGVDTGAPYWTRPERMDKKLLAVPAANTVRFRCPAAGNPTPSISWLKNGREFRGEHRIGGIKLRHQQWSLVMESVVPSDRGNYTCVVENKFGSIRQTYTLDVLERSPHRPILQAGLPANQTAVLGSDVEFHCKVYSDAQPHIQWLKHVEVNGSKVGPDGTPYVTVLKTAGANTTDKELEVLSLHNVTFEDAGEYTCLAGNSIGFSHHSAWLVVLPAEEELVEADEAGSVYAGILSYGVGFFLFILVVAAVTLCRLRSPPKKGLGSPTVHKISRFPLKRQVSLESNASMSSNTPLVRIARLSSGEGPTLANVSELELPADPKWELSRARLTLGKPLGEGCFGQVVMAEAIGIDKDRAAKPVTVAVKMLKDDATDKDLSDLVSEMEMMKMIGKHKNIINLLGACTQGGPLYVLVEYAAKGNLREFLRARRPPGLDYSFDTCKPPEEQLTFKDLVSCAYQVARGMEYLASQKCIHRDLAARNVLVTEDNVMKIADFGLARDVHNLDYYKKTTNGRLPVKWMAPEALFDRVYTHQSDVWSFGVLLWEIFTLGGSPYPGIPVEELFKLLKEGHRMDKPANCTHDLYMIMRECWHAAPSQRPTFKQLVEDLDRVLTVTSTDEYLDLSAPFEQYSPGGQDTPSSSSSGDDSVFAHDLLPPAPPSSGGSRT
Description: Inhibition of FGFR3 (unknown origin) using TK as substrate incubated for 1 hr in presence of biotin/ATP by HTRF assay

Sequence of Fibroblast growth factor receptor 4 (P22455 whole entry): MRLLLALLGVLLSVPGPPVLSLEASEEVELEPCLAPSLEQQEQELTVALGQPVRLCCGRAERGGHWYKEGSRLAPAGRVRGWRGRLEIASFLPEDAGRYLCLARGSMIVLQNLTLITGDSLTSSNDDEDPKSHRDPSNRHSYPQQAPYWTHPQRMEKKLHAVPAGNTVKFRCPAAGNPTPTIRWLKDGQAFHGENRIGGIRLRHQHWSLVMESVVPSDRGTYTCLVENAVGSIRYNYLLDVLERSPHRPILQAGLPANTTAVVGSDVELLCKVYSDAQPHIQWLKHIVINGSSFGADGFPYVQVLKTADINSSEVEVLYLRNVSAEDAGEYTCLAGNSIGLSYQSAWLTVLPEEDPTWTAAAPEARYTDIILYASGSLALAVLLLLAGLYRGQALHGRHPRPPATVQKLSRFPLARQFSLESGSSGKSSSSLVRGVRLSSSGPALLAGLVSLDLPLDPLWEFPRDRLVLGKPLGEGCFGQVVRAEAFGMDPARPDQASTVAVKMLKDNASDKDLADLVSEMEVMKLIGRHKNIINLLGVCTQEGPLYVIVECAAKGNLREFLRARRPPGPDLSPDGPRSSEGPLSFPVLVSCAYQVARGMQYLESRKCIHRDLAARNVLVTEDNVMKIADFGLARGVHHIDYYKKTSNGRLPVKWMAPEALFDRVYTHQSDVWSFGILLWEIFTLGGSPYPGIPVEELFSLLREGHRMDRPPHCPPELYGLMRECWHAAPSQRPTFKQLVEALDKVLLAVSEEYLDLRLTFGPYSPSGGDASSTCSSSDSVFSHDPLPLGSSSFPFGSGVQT

SMILES | IC50 [1] [nM] | IC50 (Huh-7) [nM] | other results
COc1cccc(S(=O)(=O)c2c[nH]c3cnc(Nc4ccc(N5CCOCC5)cc4)nc23)c1 | 1970 | – | –
CN1CCN(c2ccc(Nc3ncc4ccn(S(=O)(=O)c5cccc6c5OCO6)c4n3)cc2)CC1 | 29.5 | 534 | –
COc1cccc(S(=O)(=O)n2ccc3cnc(Nc4ccc(CN5CCN(C)CC5)cc4)nc32)c1 | 132 | – | –
COc1cccc(S(=O)(=O)c2cnc3cnc(Nc4ccc(N5CCOCC5)cc4)cn23)c1 | 4770 | – | –
COc1cccc(S(=O)(=O)n2ccc3cnc(Nc4ccc(N5C[C@@H]6C[C@H]5CN6C)cc4)nc32)c1 | 47.5 | 166 | IC50 (BaF3 [2]): > 2000 nM; IC50 (BaF3 [3]): 126 nM; CLint scaled (in vitro [4]): 416 mL/min/kg; microsomal CLint at 50 min (in vitro [5]): 106 µL/min/mg; CLint scaled (in vitro [6]): 6 mL/min/kg; half-life at 50 min (in vitro [7]): 224 min; half-life at 50 min (in vitro [8]): 13.1 min; microsomal CLint at 50 min (in vitro [9]): 6.4 µL/min/mg; IC50 (BaF3 [10]): 632 nM
COc1cccc(S(=O)(=O)n2ccc3cnc(Nc4ccc(N5C[C@@H](C)N[C@@H](C)C5)cc4)nc32)c1 | 17.1 | – | inhibition [11]: Active; inhibition [12]: Dose-Dependent Effect; IC50 [13]: 46.7 nM; inhibition [14]: Dose-Dependent Effect; inhibition [15]: Dose-Dependent Effect; IC50 [16]: 29.6 nM
COc1cccc(S(=O)(=O)n2ccc3cnc(Nc4ccc(N5CCC(N(C)C)CC5)cc4)nc32)c1 | 13.9 | 310 | –
COc1cccc(S(=O)(=O)n2ccc3cnc(Nc4ccc(N5CCOCC5)cc4)nc32)c1 | 114 | – | –
CN1CCN(c2ccc(Nc3ncc4ccn(S(=O)(=O)C5CCCCC5)c4n3)cc2)CC1 | 615 | – | –
COc1ccc(Cl)c(S(=O)(=O)n2ccc3cnc(Nc4ccc(N5CCN(C)CC5)cc4)nc32)c1 | 29 | 298 | –
COc1cccc(S(=O)(=O)n2ccc3cnc(Nc4ccc(C(=O)N5CCN(C)CC5)cc4)nc32)c1 | 112 | 449 | –
COc1cccc(S(C)(=O)=Nc2cc(Nc3ccc(N4CCOCC4)cc3)ncc2C#N)c1 (stereo not given) | 346 | – | –
CN1CCN(c2ccc(Nc3ncc4ccn(S(=O)(=O)c5cccnc5)c4n3)cc2)CC1 | 33 | 383 | –
CN1CCN(c2ccc(Nc3ncc4ccn(S(=O)(=O)c5cccc(F)c5)c4n3)cc2)CC1 | 60.5 | – | –
CN1CCN(c2ccc(Nc3ncc4ccn(S(=O)(=O)c5ccccc5OC(F)(F)F)c4n3)cc2)CC1 | 36.8 | 444 | –
CN1CCN(c2ccc(Nc3ncc4ccn(S(=O)(=O)c5ccccc5)c4n3)cc2)CC1 | 74.7 | – | –

SMILES | IC50 [1] [nM] | IC50 (Huh-7) [nM] | other results
CN1CCN(c2ccc(Nc3ncc4ccn(S(=O)(=O)c5ccccc5Cl)c4n3)cc2)CC1 | 33.6 | 451 | –
C=CC(=O)N[C@H]1CCOC[C@H]1Nc1ncc2cc(-c3c(Cl)c(OC)cc(OC)c3Cl)ccc2n1 [FISOGATINIB] | 5.3 | 45.9 | –
COc1ccc(S(=O)(=O)n2ccc3cnc(Nc4ccc(N5CCN(C)CC5)cc4)nc32)cc1 | 893 | – | –
COc1ccc(OC)c(S(=O)(=O)n2ccc3cnc(Nc4ccc(N5CCN(C)CC5)cc4)nc32)c1 | 8.7 | 244 | IC50 (BaF3 [2]): > 2000 nM; IC50 (BaF3 [3]): 58.3 nM; CLint scaled (in vitro [4]): 1110 mL/min/kg; microsomal CLint at 50 min (in vitro [5]): 283 µL/min/mg; CLint scaled (in vitro [6]): 36.5 mL/min/kg; half-life at 50 min (in vitro [7]): 47.7 min; half-life at 50 min (in vitro [8]): 4.9 min; microsomal CLint at 50 min (in vitro [9]): 40.5 µL/min/mg; IC50 (BaF3 [10]): 405 nM
COc1cccc(S(=O)(=O)Nc2cc(Nc3ccc(N4CCOCC4)cc3)ncc2C#N)c1 | > 10000 | – | –
CN1CCN(c2ccc(Nc3ncc4ccn(S(=O)(=O)c5cccc(OC(F)(F)F)c5)c4n3)cc2)CC1 | 703 | – | –
CN1CCN(c2ccc(Nc3ncc4ccn(S(=O)(=O)c5cc(F)cc(F)c5)c4n3)cc2)CC1 | 12.7 | 191 | IC50 (BaF3 [2]): > 2000 nM; IC50 (BaF3 [3]): 64 nM; CLint scaled (in vitro [4]): 1250 mL/min/kg; microsomal CLint at 50 min (in vitro [5]): 319 µL/min/mg; CLint scaled (in vitro [6]): 49.4 mL/min/kg; half-life at 50 min (in vitro [7]): 35.2 min; half-life at 50 min (in vitro [8]): 4.4 min; microsomal CLint at 50 min (in vitro [9]): 54.8 µL/min/mg; IC50 (BaF3 [10]): 376 nM
COc1cccc(S(=O)(=O)n2ccc3cnc(Nc4ccc(N5CCN(C)CC5)cc4)nc32)c1OC | 1340 | – | –
COc1cccc(S(=O)(=O)n2ccc3cnc(Nc4ccc(N5CCOCC5)cc4)cc32)c1 | 198 | – | –
COc1cccc(S(=O)(=O)n2ccc3cnc(Nc4ccc(N(C)CCN(C)C)cc4)nc32)c1 | 17.1 | 811 | –
COc1ccccc1S(=O)(=O)n1ccc2cnc(Nc3ccc(N4CCN(C)CC4)cc3)nc21 | 16.1 | 240 | –
CN1CCN(c2ccc(Nc3ncc4ccn(S(=O)(=O)c5c(Cl)cccc5Cl)c4n3)cc2)CC1 | 55 | 377 | –
COc1cc(OC)cc(S(C)(=O)=Nc2cc(Nc3ccc(N4CCOCC4)cc3)ncc2C#N)c1 (stereo not given) | 2190 | – | –
COc1cccc(S(=O)(=O)n2ccc3cnc(Nc4ccc(N5CCN(C)CC5)cc4)nc32)c1 | 10.4 | 131 | IC50 (BaF3 [2]): > 2000 nM; IC50 (BaF3 [3]): 71.8 nM; CLint scaled (in vitro [4]): 654 mL/min/kg; microsomal CLint at 50 min (in vitro [5]): 165 µL/min/mg; CLint scaled (in vitro [6]): 32 mL/min/kg; half-life at 50 min (in vitro [7]): 39 min; half-life at 50 min (in vitro [8]): 4.2 min; microsomal CLint at 50 min (in vitro [9]): 35.5 µL/min/mg; IC50 (BaF3 [10]): 534 nM
COc1cccc(S(=O)(=O)n2ccc3cnc(Nc4ccc(N5CCC(N(C)C)C5)cc4)nc32)c1 (stereo not given) | 41.8 | 301 | –
CN1CCN(c2ccc(Nc3ncc4ccn(S(=O)(=O)c5ccn(C)n5)c4n3)cc2)CC1 | 127 | – | –
